This note sets out measurements from US9051295B2, “1-substituted indazole derivative” (Dainippon Sumitomo Pharma Co., Ltd., priority 2012, dated 2015).

Molecules are shown by their SMILES.

In one test the target is T1, human α7 nAChR (Homo sapiens, UniProt P36544).
T1 construct: expressed in transfected cells; host or cells: GH4C1 cells (rat pituitary, ATCC CCL-82.2)
T1 sequence (P36544 23-502): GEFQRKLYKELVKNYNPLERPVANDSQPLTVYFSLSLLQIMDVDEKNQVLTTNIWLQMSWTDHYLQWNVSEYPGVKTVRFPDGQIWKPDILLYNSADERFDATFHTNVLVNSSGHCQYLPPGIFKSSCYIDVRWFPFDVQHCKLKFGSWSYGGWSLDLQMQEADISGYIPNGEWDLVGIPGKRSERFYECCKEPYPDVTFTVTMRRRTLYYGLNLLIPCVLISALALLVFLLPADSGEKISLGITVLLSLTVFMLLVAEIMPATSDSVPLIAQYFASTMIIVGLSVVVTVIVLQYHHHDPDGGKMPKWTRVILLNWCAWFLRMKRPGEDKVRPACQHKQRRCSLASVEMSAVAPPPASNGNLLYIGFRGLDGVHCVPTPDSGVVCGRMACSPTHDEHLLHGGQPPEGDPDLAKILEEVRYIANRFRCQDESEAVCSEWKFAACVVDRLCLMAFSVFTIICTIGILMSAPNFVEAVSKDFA
The experiment in a line: Evaluation of PAM activity with human α7 nACh receptor stably expressing cells (aequorin luminescence, FDSS7000, ACh EC20). The format is cell-based. As to conditions: statement on Table 8 data. From the text: Evaluation of PAM Activity with Human α7 nACh Receptor Stably Expressing Cells
(1) Human α7 nAChR Stably Expressing Cells
Human α7 nAChR stably expressing cells were generated and cultured. In detail, GH4C1 cells derived from rat pituitary (cat#CCL-82.2, ATCC, USA) were used as a host cell. PcDNA3.1Zeo vector containing a nucleotide sequence encoding a protein GenBank BAC81731 and pcDNA3.1 vector containing human α7 nAChR gene (cat#V790-20, invitrogen, Carlsbad, Calif., USA) were transfected to the cells to give aequorins and human α7 nAChR stably expressing cells respectively. The aequorins and human α7 nAChR stably expressing cells were screened with Zeocin (cat#R25001, invitrogen, Carlsbad, Calif., USA) and Geneticin (cat#10131-027, invitrogen, Carlsbad, Calif., USA) respectively.
The cells were cultured in F-10 Nutrient Mixture (Ham) medium (cat#11550-043, invitrogen, Carlsbad, Calif., USA) containing 2.5% fetal bovine serum (cat#2917354, ICN Biomedicals, Inc, USA), 15% inactivated horse serum (cat#26050-088, invitrogen, Carlsbad, Calif., USA), 1 μg/mL Geneticin, and 5 μg/mL Puromycin (cat#14861-84, invitrogen, Carlsbad, Calif., USA), in a Collagen Type 1-coated dish (cat#4030-010, iwaki, Tokyo, Japan). During the culture, the medium was replaced with fresh medium in every 2 to 3 days, and the cells were treated with TrypLE Express (cat#45604-021, invitrogen, Carlsbad, Calif., USA) to collect them in every 7 days. Thus, the cells were subcultured.
7 Days after subculturing, the cells were treated with TrypLE Express to collect them when they were about 80% confluent. The cells were suspended in a reaction medium containing Hanks (cat#14065-056, invitrogen, Carlsbad, Calif., USA)/20 mmol/L Hepes (cat#15630-080, invitrogen, Carlsbad, Calif., USA), Buffer (pH 7.4), F-10 Nutrient Mixture (Ham), and 0.1 mg/mL Geneticin, and the suspension was seeded in a 384-well plate (cat#781090, Greiner, Germany) at 20000 cells/25 μL per well.
On the next day after seeding, Viviren (cat#E649X, Promega, Madison, Wis., USA) was added to the medium so that the final concentration could be 4 μmol/L (15 μL/well). The plates were centrifuged and then placed in the dark for 4 hours at room temperature.
(2) Preparation of the Test Samples
Each of the test compounds was dissolved in DMSO to prepare each test sample at a concentration of 1000-fold the final concentration. To the solution was added Hanks/20 mM HEPES/0.2% BSA (cat#A3803, Sigma, St. Louis, Mo., USA), and the concentration was adjusted to 6-fold the final concentration.
(3) Evaluation of PAM Activity
FDSS7000 (Hamamatsu Photonics) was used to detect the luminescence signal evoked by α7 nAChR stimulation. The cells and a luminescent substrate were put on a plate, and the test sample was added thereto. […] After the addition of ACh, the luminescence signal (the central wavelength: 465 nm) was measured for 138 seconds to calculate RLU (Max-Min). The ratio of the RLU (Max-Min) of the test-compound-containing wells to that of the control wells was defined as PAM activity.
Regarding `CCc1ccc2c(cnn2[C@H]2CC[C@@H](NC(=O)C3CCC(F)(F)CC3)CC2)c1` [Example 4, N-(cis-4-(5-ethyl-1H-indazol-1-yl)cyclohexyl)-4,4-difluorocyclohexanecarboxamide], the “PAM activity for α7 nAChR (in words)” value is recorded as “stronger PAM activity than others”. Same read-out and setting: the entry for `Cc1ccc2c(cnn2C2CCN(C(=O)NC3CCCCC3)CC2)c1` [Example 8, N-cyclohexyl-4-(5-methyl-1H-indazol-1-yl)piperidine-1-carboxamide] is “stronger PAM activity than others”. Same read-out and setting: the entry for `Cc1ccc2c(cnn2C2CCN(C(=O)NC3CCC(F)(F)CC3)CC2)c1` [Example 13, N-(4,4-difluorocyclohexyl)-4-(5-methyl-1H-indazol-1-yl)piperidine-1-carboxamide] is “stronger PAM activity than others”; for `CCOc1ccc2c(cnn2C2CCN(C(=O)NC3CCCC3)CC2)c1` [Example 17] it is “stronger PAM activity than others”. Still for that read-out and setting: the entry for `CCOc1ccc2c(cnn2C2CCN(C(=O)NC3CCCCC3)CC2)c1` [Example 18, N-cyclohexyl-4-(5-ethoxy-1H-indazol-1-yl)piperidine-1-carboxamide] is “stronger PAM activity than others”. For `CCc1ccc2c(cnn2C2CCN(C(=O)NC3CCCC3)CC2)c1` [Example 20], the “PAM activity for α7 nAChR (in words)” value is “stronger PAM activity than others”. Same read-out and setting: as for `CCc1ccc2c(cnn2C2CCN(C(=O)NC3CCC(F)(F)CC3)CC2)c1` [Example 23], the entry is “stronger PAM activity than others”; as for `COc1ccc2c(cnn2C2CCN(C(=O)NC3CCCCC3)CC2)c1` [Example 40], “stronger PAM activity than others”.

For the compound `COc1ccc2c(cnn2C2CCN(C(=O)NC3CCC(F)(F)CC3)CC2)c1` [Example 41, N-(4,4-difluorocyclohexyl)-4-(5-methoxy-1H-indazol-1-yl)piperidine-1-carboxamide], the “PAM activity for α7 nAChR (in words)” value is listed as “stronger PAM activity than others”. Take `CCc1ccc2c(cnn2[C@H]2CC[C@@H](NC(=O)C3CCCCC3)CC2)c1` [Example 119]: the “PAM activity for α7 nAChR (in words)” value is “stronger PAM activity than others”.

In the case of `COCC1CCC(NC(=O)N2CCC(n3ncc4cc(C)ccc43)CC2)CC1` (stereo not shown) [Example 220], the “PAM activity for α7 nAChR (in words)” value is “stronger PAM activity than others”.

The test is the same for the next values; noted with them: test compound 10 μmol/L; ACh at EC20; ratio of RLU (Max-Min) of test-compound wells to control wells.
For the compound `CCc1ccc2c(cnn2[C@H]2CC[C@@H](NC(=O)C3CCC(F)(F)CC3)CC2)c1` [Example 4, N-(cis-4-(5-ethyl-1H-indazol-1-yl)cyclohexyl)-4,4-difluorocyclohexanecarboxamide], the “α7PAM (%) @ 10 μmol/L” value is listed as 2344%. On the same count and under the same terms, as for `CCc1ccc2c(cnn2[C@H]2CC[C@@H](NC(=O)NC3CCC(F)(F)CC3)CC2)c1` [Example 5, 1-(4,4-difluorocyclohexyl)-3-(cis-4-(5-ethyl-1H-indazol-1-yl)cyclohexyl)urea], the figure is 1368%. Still for that read-out and setting: as for `Cc1ccc2c(cnn2C2CCN(C(=O)NC3CCCCC3)CC2)c1` [Example 8, N-cyclohexyl-4-(5-methyl-1H-indazol-1-yl)piperidine-1-carboxamide], the figure is 3053%; as for `Cc1ccc2c(cnn2C2CCN(C(=O)NC3CCC(F)(F)CC3)CC2)c1` [Example 13, N-(4,4-difluorocyclohexyl)-4-(5-methyl-1H-indazol-1-yl)piperidine-1-carboxamide], 3399%; as for `CCCc1ccc2c(cnn2C2CCN(C(=O)NC3CCOCC3)CC2)c1` [Example 15, 4-(5-propyl-1H-indazol-1-yl)-N-(tetrahydro-2H-pyran-4-yl)piperidine-1-carboxamide], 1025%.

In the case of `CCc1ccc2c(cnn2C2CCN(C(=O)N[C@H]3CC[C@H](OC)CC3)CC2)c1` [Example 16, 4-(5-ethyl-1H-indazol-1-yl)-N-(trans-4-methoxycyclohexyl)piperidine-1-carboxamide], the “α7PAM (%) @ 10 μmol/L” value came out at 1764%. Same read-out and setting: as for `CCOc1ccc2c(cnn2C2CCN(C(=O)NC3CCCCC3)CC2)c1` [Example 18, N-cyclohexyl-4-(5-ethoxy-1H-indazol-1-yl)piperidine-1-carboxamide], the figure is 6779%; as for `CCc1ccc2c(cnn2C2CCN(C(=O)NC3CCCOC3)CC2)c1` (stereo not shown) [Example 22, 4-(5-ethyl-1H-indazol-1-yl)-N-(tetrahydro-2H-pyran-3-yl)piperidine-1-carboxamide], 1425%. On the same count and under the same terms, the figure for `CCc1ccc2c(cnn2C2CCN(C(=O)NC3CCC(F)(F)CC3)CC2)c1` [Example 23] is 6196%; for `CCOc1ccc2c(cnn2C2CCN(C(=O)NC3CCC(F)(F)CC3)CC2)c1` [Example 27, N-(4,4-difluorocyclohexyl)-4-(5-ethoxy-1H-indazol-1-yl)piperidine-1-carboxamide] it is 1673%; for `COCCCc1ccc2c(cnn2C2CCN(C(=O)N[C@H]3CC[C@H](OC)CC3)CC2)c1` [Example 32] it is 430%. On to `COc1ccc2c(cnn2C2CCN(C(=O)NC3CCC(F)(F)CC3)CC2)c1` [Example 41, N-(4,4-difluorocyclohexyl)-4-(5-methoxy-1H-indazol-1-yl)piperidine-1-carboxamide], for which the “α7PAM (%) @ 10 μmol/L” value is on record as 3749%.

As to `Cc1ccc2c(c1)c(C)nn2C1CCN(C(=O)NC2CCC(F)(F)CC2)CC1` [Example 45, N-(4,4-difluorocyclohexyl)-4-(3,5-dimethyl-1H-indazol-1-yl)piperidine-1-carboxamide], the “α7PAM (%) @ 10 μmol/L” value is 1576%. The same measure, in the same setting: as for `CC(C)Oc1ccc2c(cnn2C2CCN(C(=O)NC3CCCCC3)CC2)c1` [Example 48, N-cyclohexyl-4-(5-isopropoxy-1H-indazol-1-yl)piperidine-1-carboxamide], the figure is 1202%; as for `CCc1cccc2c1cnn2C1CCN(C(=O)NC2CCC(F)(F)CC2)CC1` [Example 64, N-(4,4-difluorocyclohexyl)-4-(4-ethyl-1H-indazol-1-yl)piperidine-1-carboxamide], 1133%. Same read-out and setting: the figure for `COCc1nn(C2CCN(C(=O)NC3CCCCC3)CC2)c2ccc(C)cc12` [Example 68] is 430%; for `CCCc1ccc2c(cnn2C2CCN(C(=O)NC3CCC(OC)CC3)CC2)c1` (stereo not shown) [Example 76] it is 420%; for `Cc1ccc2c(cnn2C2CCN(C(=O)N[C@H]3CCCCC3(F)F)CC2)c1` [Example 79, (S)—N-(2,2-difluorocyclohexyl)-4-(5-methyl-1H-indazol-1-yl)piperidine-1-carboxamide] it is 1064%. Still for that read-out and setting: the figure for `Cc1ccc2c(cnn2C2CCN(C(=O)N[C@H]3CCCC3(F)F)CC2)c1` [Example 80, (S)—N-(2,2-difluorocyclopentyl)-4-(5-methyl-1H-indazol-1-yl)piperidine-1-carboxamide] is 1033%; for `Cc1ccc2c(cnn2C2CCN(C(=O)NC3CCC(OCC(F)(F)F)CC3)CC2)c1` (stereo not shown) [Example 83] it is 420%; for `CCO[C@H]1CC[C@H](NC(=O)N2CCC(n3ncc4cc(C)ccc43)CC2)CC1` [Example 90, N-(trans-4-ethoxycyclohexyl)-4-(5-methyl-1H-indazol-1-yl)piperidine-1-carboxamide] it is 1467%. In the case of `COC1CCC(NC(=O)N2CCC(n3ncc4c(Br)cccc43)CC2)CC1` (stereo not shown) [Example 98], the “α7PAM (%) @ 10 μmol/L” value was 89%. As to `O=C(C1CCOCC1)N1CCC(n2ncc3cc(F)ccc32)CC1` [Example 104], the “α7PAM (%) @ 10 μmol/L” value is 190%. As for `CCc1ccc2c(cnn2C2CCN(C(=O)C3CCOCC3)CC2)c1` [Example 111], the “α7PAM (%) @ 10 μmol/L” value is 410%.

Regarding `CCc1ccc2c(cnn2[C@H]2CC[C@@H](NC(=O)[C@H]3CC[C@H](OC)CC3)CC2)c1` [Example 122], the “α7PAM (%) @ 10 μmol/L” value came to 410%. Same read-out and setting: the figure for `CO[C@H]1CC[C@H](NC(=O)N2CCC(n3ncc4cc(-c5ccc(F)cc5)ccc43)CC2)CC1` [Example 155] is 210%; for `CCOc1cccc2c1cnn2C1CCN(C(=O)N[C@H]2CC[C@@H](OC)CC2)CC1` [Example 184] it is 200%.

With `O=C(Nc1ccc(C(F)(F)F)nc1)N1CCC(n2ncc3cc(C4CC4)ccc32)CC1` [Example 187], the “α7PAM (%) @ 10 μmol/L” value stood at 220%. On to `O=C(NC1CCC(F)(F)CC1)N1CCC(n2ncc3c(OC(F)F)cccc32)CC1` [Example 201], for which the “α7PAM (%) @ 10 μmol/L” value was 370%. On to `CO[C@H]1CCC[C@H](NC(=O)N2CCC(n3ncc4cc(C5CC5)ccc43)CC2)C1` [Example 211, 4-(5-cyclopropyl-1H-indazol-1-yl)-N-[(1S,3S)-3-methoxycyclohexyl]piperidine-1-carboxamide], for which the “α7PAM (%) @ 10 μmol/L” value stood at 1034%. On to `COCc1c(C)ccc2c1cnn2C1CCN(C(=O)NC2CCC(F)(F)CC2)CC1` [Example 213], for which the “α7PAM (%) @ 10 μmol/L” value worked out at 800%.

`CO[C@H]1CC[C@H](NC(=O)N2CCC(n3ncc4c(C)c(C)ccc43)CC2)CC1` [Example 225]: the “α7PAM (%) @ 10 μmol/L” value is reported as 480%.
